Data from patent publication US4042695A, “Thiaxanthene derivatives, compositions thereof and methods of treating therewith” (priority 1972, dated 1977).
Where two headings read alike, the source gives them in different places.

What was measured:
[1] = tested on: adult purebred Beagle dogs; test: Apomorphine antagonism in dogs; format: in vivo; details: ordinary doses, prolonged treatment
[2] = Pharmacological tests (test not specified); details: in vivo; listed as Example 12 alpha-isomer
[3] = tested on: rats; test: Antagonism of amphetamine-induced stereotyped behaviour in rats; format: in vivo; details: oral; for ED50: Rattus norvegicus
Protocol: The modification used by us was as follows:
The animals were then placed in individual cages. […] The absence of stereotypy was interpreted as a drug effect. ED50 values for protection against stereotypy were determined. All compounds were tested at a minimum of three dose levels using 10 rats per dose, and the observer was kept unaware of the identity of the groups until after the experiment.

Question: For OCCC1CCN(CCC=C2c3ccc(F)cc3Sc3ccc(C(F)(F)F)cc32)CC1 [Substance 13, alpha-isomer of 2-trifluoromethyl-6-fluoro-9-(3-(4-(2-hydroxyethyl)-1-piperidyl)propylidene)-thiaxanthene], which “feed intake and survival” value [1] is on record?
Answer: The value was “did not take feed to a sufficient degree and, accordingly tended to die by starvation”.

Question: What about the “pharmacological activity of the isomer (in words)” value [2] of the same compound?
Answer: Its value is “pharmacologically active”.

Question: What about the ED50 ([3]; 24 hours after administration, read-out: ED50 for protection against stereotypy, peak effect (24 hours)) of the same compound?
Answer: Its ED50 is 0.04 mg/kg.

Question: What about the ED50 ([3]; 48 h, read-out: ED50 for protection against stereotypy, 48 h) of the same compound?
Answer: Its ED50 is 0.2 mg/kg.

Question: What about the ED50 ([3]; 72 h, read-out: ED50 for protection against stereotypy, 72 h) of the same compound?
Answer: Its ED50 is 0.9 mg/kg.

Question: What about the ED50 ([3]; 96 h, read-out: ED50 for protection against stereotypy, 96 h) of the same compound?
Answer: Its ED50 is 2.3 mg/kg.

Question: And the “time of peak effect, amphetamine antagonism” value [3]?
Answer: The value was 24 h.

Question: And the “amphetamine antagonistic effect 4 days after administration (in words)” value ([3]; 4 days)?
Answer: Its value is “rather weak”.
